Test results from ChEMBL document CHEMBL4840350 (J Med Chem, 2021).
One block for each compound: values may come before it.

Key:
[1] = Stability in mouse liver S9 fraction assessed as extraction ratio at 3 uM measured upto 45 mins in presence of NADPH and UDPGA by LC-MS/MS analysis; format: ADME, subcellular
[2] = Stability in mouse liver S9 fraction assessed as half life at 3 uM measured upto 45 mins in presence of NADPH and UDPGA by LC-MS/MS analysis; format: ADME, subcellular
[3] = Dose normalized AUC (0 to 8 hrs) in CD-1 mouse at 3 mg/kg, po administered as single dose measured over 24 hrs by LC-MS/MS analysis; format: ADME, organism-based; details: in vivo
[4] = Dose normalized Cmax in CD-1 mouse at 60 mg/kg, po administered as repeated dose measured at day 4 by LC-MS/MS analysis; format: ADME, organism-based; details: in vivo, 96 h, time 4 day
[5] = AUC(0 to 8 hrs) in CD-1 mouse at 60 mg/kg, po administered as repeated dose measured at day 1 by LC-MS/MS analysis; format: ADME, organism-based; design: route oral, dose 60 mg/kg, time 1 day; details: in vivo
[6] = Drug uptake in po dosed CD-1 mouse xenografted with human HL-60 cells administered twice daily for 4 weeks and measured 1 to 8 hrs after post last dose; format: ADME, organism-based; details: in vivo, 672 h
[7] = Dose normalized AUC (0 to 8 hrs) in CD-1 mouse at 60 mg/kg, po administered as repeated dose measured at day 4 by LC-MS/MS analysis; format: ADME, organism-based; details: in vivo, 96 h, time 4 day
[8] = Dose normalized AUC (0 to 8 hrs) in CD-1 mouse at 60 mg/kg, po administered as repeated dose measured at day 1 by LC-MS/MS analysis; format: ADME, organism-based; details: in vivo, 24 h, time 1 day
[9] = Dose normalized Cmax in CD-1 mouse at 60 mg/kg, po administered as repeated dose measured at day 1 by LC-MS/MS analysis; format: ADME, organism-based; details: in vivo, 24 h, time 1 day
[10] = Observed clearance in CD-1 mouse at 3 mg/kg, po administered as single dose measured over 24 hrs by LC-MS/MS analysis; format: ADME, organism-based; details: in vivo
[11] = Apparent permeability of compound in human Caco2 cells at 10 uM incubated for 120 mins by LC-MS/MS analysis; format: ADME, cell-based; details: Caco-2
[12] = AUC(0 to 8 hrs) in CD-1 mouse at 60 mg/kg, po administered as repeated dose measured at day 4 by LC-MS/MS analysis; format: ADME, organism-based; design: route oral, time 4 day, dose 60 mg/kg; details: in vivo
[13] = Elimination half-life in CD-1 mouse at 60 mg/kg, po administered as repeated dose measured at day 4 by LC-MS/MS analysis; format: ADME, organism-based; details: in vivo, time 4 day, read-out: beta t1/2 (converted)
[14] = AUC(0 to 8 hrs) in CD-1 mouse at 3 mg/kg, po administered as single dose measured over 24 hrs by LC-MS/MS analysis; format: ADME, organism-based; design: route oral, time 24 hrs, dose 3 mg/kg; details: in vivo
[15] = Cmax in CD-1 mouse at 60 mg/kg, po administered as repeated dose measured at day 1 by LC-MS/MS analysis; format: ADME, organism-based; design: route oral, time 1 day, dose 60 mg/kg; details: in vivo
[16] = Dose normalized Cmax in CD-1 mouse at 3 mg/kg, po administered as single dose measured over 24 hrs by LC-MS/MS analysis; format: ADME, organism-based; details: in vivo
[17] = Cmax in CD-1 mouse at 60 mg/kg, po administered as repeated dose measured at day 4 by LC-MS/MS analysis; format: ADME, organism-based; design: route oral, dose 60 mg/kg, time 4 day; details: in vivo

ERH [1]: 0.09
SMILES: Cc1cc(F)ccc1-c1cc2c(cn1)ncn2-c1ccc(OC(F)F)nc1

half-life at […], 3 µM [2]: 0.7 h
SMILES: COc1ccc(Cn2cnc3cnc(Nc4cccc(NC(C)=O)c4)cc32)cc1OC

ERH [1]: 0.02
SMILES: Cc1cc(C#N)ccc1-c1cc2c(cn1)ncn2-c1ccc(OC(F)F)cc1

AUC/dose [3]: 121 ng·h/mL per mg/kg
Cmax/dose [4]: 45 ng/mL
AUC(0-t) at 24 h [5]: 9860 ng·h/mL
Drug uptake [6]: Dose-Dependent Effect
AUC/dose [7]: 154 ng·h/mL per mg/kg
AUC/dose [8]: 164 ng·h/mL per mg/kg
Cmax/dose [9]: 37 ng/mL
CL/F [10]: 129 mL/min/kg
Papp at 2 h, 10 µM [11]: 14 ×10⁻⁶ cm/s
AUC at 96 h [12]: 9220 ng·h/mL
half-life [13]: 8.1 h
AUC(0-t) at 24 h [14]: 363 ng·h/mL
Cmax [15]: 2210 ng/mL
Cmax/dose [16]: 43 ng/mL
Cmax [17]: 2680 ng/mL
SMILES: Cc1cc(F)ccc1-c1cc2c(cn1)ncn2-c1ccc(OC(F)F)cc1
